# Test results reported in ChEMBL document CHEMBL1926646 (Bioorg Med Chem, 2011).
# The source made the active and inactive calls. No cut-off for these calls is given here.
# Key:
# [1] = Plasma protein binding in rat at 2000 ng/ml after 0.5 hrs by LC-MS/MS analysis; format: ADME, cell-free; conditions: read-out: PPB (converted)
# [2] = biological target: Cytochrome P450 2D6 (Homo sapiens, UniProt P10635); experiment: Inhibition of CYP2D6; format: ADME
# [3] = biological target: Dipeptidyl peptidase 9 (Homo sapiens, UniProt Q86TI2); experiment: Inhibition of human recombinant DPP-9 expressed in Sf9 cells using H-Gly-Pro-AMC as substrate preincubated for 30 mins before substrate addition measured after 20 mins by fluorescence assay
# Dipeptidyl peptidase 9, sequence (Q86TI2 whole entry): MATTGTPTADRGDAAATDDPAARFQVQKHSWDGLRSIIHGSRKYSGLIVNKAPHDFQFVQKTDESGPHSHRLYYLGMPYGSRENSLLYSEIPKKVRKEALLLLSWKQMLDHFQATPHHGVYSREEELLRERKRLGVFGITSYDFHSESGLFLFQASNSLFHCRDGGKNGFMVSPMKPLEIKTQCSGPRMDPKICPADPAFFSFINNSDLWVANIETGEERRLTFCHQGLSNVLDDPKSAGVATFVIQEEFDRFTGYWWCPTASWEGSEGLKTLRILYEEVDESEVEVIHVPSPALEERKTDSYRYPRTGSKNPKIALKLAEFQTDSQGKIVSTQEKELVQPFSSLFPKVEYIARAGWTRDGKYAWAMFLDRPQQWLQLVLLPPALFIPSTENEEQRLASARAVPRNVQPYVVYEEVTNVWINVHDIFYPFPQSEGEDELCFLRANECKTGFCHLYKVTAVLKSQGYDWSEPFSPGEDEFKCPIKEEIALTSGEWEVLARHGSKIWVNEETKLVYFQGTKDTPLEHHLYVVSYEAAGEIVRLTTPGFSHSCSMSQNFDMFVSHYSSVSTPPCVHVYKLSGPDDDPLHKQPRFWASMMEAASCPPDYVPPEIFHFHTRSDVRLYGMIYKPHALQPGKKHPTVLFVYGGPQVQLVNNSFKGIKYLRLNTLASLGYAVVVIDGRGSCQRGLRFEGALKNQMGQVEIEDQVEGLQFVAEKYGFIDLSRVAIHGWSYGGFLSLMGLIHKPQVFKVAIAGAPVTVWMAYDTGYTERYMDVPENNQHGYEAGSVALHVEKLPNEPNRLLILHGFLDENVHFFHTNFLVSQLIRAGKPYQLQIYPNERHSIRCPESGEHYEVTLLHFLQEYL
# [4] = biological target: T1, Cytochrome P450 1A2 (Homo sapiens, UniProt P05177); experiment: Induction of CYP1A2 at 50 uM; format: ADME
# T1 sequence (P05177 whole entry): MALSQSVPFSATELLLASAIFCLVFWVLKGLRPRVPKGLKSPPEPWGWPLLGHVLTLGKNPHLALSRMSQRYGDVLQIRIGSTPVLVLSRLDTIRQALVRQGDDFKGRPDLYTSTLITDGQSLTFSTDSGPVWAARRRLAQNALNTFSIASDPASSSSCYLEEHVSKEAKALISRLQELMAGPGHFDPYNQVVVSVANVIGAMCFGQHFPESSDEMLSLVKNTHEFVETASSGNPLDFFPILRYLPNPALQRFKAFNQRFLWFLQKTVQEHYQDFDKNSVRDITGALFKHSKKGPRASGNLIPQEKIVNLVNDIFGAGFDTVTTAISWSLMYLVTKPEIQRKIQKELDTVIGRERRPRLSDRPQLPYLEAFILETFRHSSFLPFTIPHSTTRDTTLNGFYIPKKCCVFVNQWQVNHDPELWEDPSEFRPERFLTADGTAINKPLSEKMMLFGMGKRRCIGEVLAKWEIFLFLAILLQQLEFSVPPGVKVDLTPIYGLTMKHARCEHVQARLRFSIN
# [5] = biological target: T2, Cytochrome P450 3A4 (Homo sapiens, UniProt P08684); experiment: Inhibition of CYP3A4; format: ADME
# T2 sequence (P08684 whole entry): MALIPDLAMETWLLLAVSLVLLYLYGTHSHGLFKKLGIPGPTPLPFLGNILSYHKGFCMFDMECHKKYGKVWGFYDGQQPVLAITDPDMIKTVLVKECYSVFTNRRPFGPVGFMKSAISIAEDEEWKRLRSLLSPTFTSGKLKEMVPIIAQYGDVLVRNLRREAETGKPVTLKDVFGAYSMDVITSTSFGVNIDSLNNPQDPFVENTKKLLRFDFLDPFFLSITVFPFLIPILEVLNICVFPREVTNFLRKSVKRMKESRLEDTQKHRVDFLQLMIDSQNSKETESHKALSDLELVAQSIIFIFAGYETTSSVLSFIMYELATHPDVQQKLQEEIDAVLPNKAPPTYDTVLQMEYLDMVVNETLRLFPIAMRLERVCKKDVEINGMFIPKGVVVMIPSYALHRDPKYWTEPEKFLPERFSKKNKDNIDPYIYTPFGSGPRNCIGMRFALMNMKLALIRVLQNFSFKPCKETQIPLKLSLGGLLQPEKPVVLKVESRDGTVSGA
# [6] = Tmax in Sprague-Dawley rat at 10 mg/kg, po; format: ADME, organism-based; set-up: dose 10 mg/kg, route oral; conditions: in vivo
# [7] = system: Canis familiaris; experiment: AUC in Beagle dog at 0.5 mg/kg, po; format: ADME, organism-based, Canis lupus familiaris, Plasma; set-up: dose 0.5 mg/kg, route oral; conditions: in vivo
# [8] = Plasma protein binding in dog at 2000 ng/ml after 0.5 hrs by LC-MS/MS analysis; format: ADME, cell-free, Canis lupus familiaris; conditions: read-out: PPB (converted)
# [9] = Drug excretion in bile-duct cannulated Sprague-Dawley rat bile assessed as unchanged drug at 1 mg/kg, iv measured over 24 hrs; format: ADME, organism-based; set-up: dose 1 mg/kg, route intravenous; conditions: read-out: AE
# [10] = Drug excretion in bile-duct cannulated Sprague-Dawley rat urine assessed as unchanged drug at 1 mg/kg, iv measured over 24 hrs; format: ADME, organism-based; set-up: dose 1 mg/kg, route intravenous; conditions: read-out: AE
# [11] = Drug excretion in bile-duct cannulated Sprague-Dawley rat urine assessed as unchanged drug at 5 mg/kg, iv measured over 24 hrs; format: ADME, organism-based; set-up: dose 5 mg/kg, route intravenous; conditions: read-out: AE
# [12] = Oral bioavailability in Sprague-Dawley rat at 10 mg/kg; format: ADME, organism-based; conditions: in vivo
# [13] = Plasma protein binding in dog at 20 ng/ml after 0.5 hrs by LC-MS/MS analysis; format: ADME, cell-free, Canis lupus familiaris; conditions: read-out: PPB (converted)
# [14] = Oral bioavailability in Beagle dog at 0.5 mg/kg; format: ADME, organism-based, Canis lupus familiaris; conditions: in vivo
# [15] = Plasma protein binding in human at 2000 ng/ml after 0.5 hrs by LC-MS/MS analysis; format: ADME, cell-free; conditions: read-out: PPB (converted)
# [16] = Intrinsic clearance in dog liver microsomes; format: ADME, Canis lupus familiaris, Microsome
# [17] = Total clearance in Beagle dog at 0.2 mg/kg, iv; format: ADME, organism-based, Canis lupus familiaris; set-up: dose 0.2 mg/kg, route intravenous; conditions: in vivo
# [18] = Intrinsic clearance in human liver microsomes; format: ADME, Microsome
# [19] = system: Rattus norvegicus; experiment: Volume of distribution at steady state in Sprague-Dawley rat at 1 mg/kg, iv; format: ADME, organism-based; set-up: dose 1 mg/kg, route intravenous; conditions: in vivo
# [20] = Drug level in Sprague-Dawley rat plasma at 3 mg/kg at Tmax; format: ADME, organism-based; set-up: dose 3 mg/kg; conditions: read-out: Drug uptake
# [21] = Drug excretion in dog urine assessed as unchanged drug at 1 mg/kg, iv measured over 24 hrs; format: ADME, organism-based, Canis lupus familiaris; set-up: dose 1 mg/kg, route intravenous; conditions: read-out: AE
# [22] = system: Salmonella typhimurium; experiment: Mutagenic activity in Salmonella Typhimurium by Ames test; format: toxicity, organism-based; conditions: salmonella enterica subsp. enterica serovar typhimurium
# [23] = biological target: T3, Cytochrome P450 2C9 (Homo sapiens, UniProt P11712); experiment: Induction of CYP2C9 at 50 uM; format: ADME
# T3 sequence (P11712 whole entry): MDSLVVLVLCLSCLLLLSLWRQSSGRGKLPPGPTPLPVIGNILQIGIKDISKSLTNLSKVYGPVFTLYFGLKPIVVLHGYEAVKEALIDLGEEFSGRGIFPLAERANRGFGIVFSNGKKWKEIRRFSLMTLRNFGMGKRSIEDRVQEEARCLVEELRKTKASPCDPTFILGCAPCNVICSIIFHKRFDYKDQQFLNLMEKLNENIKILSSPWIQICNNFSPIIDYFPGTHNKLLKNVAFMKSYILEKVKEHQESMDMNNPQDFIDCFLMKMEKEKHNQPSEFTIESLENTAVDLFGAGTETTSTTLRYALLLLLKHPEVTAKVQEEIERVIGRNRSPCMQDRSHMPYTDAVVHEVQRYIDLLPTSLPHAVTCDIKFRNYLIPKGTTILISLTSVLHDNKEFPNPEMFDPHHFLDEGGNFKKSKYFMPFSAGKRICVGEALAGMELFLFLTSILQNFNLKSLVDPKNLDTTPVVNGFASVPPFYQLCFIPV
# [24] = Terminal half life in Beagle dog at 0.5 mg/kg, po; format: ADME, organism-based, Canis lupus familiaris; set-up: dose 0.5 mg/kg, route oral; conditions: in vivo, read-out: beta t1/2 (converted)
# [25] = Total clearance in Sprague-Dawley rat at 1 mg/kg, iv; format: ADME, organism-based; set-up: dose 1 mg/kg, route intravenous; conditions: in vivo
# [26] = Cmax in Beagle dog at 0.5 mg/kg, po; format: ADME, organism-based, Canis lupus familiaris; set-up: dose 0.5 mg/kg, route oral; conditions: in vivo
# [27] = biological target: Dipeptidyl peptidase 8 (Homo sapiens, UniProt Q6V1X1); experiment: Inhibition of human recombinant DPP-8 expressed in Sf9 cells using H-Gly-Pro-AMC as substrate preincubated for 30 mins before substrate addition measured after 20 mins by fluorescence assay
# Dipeptidyl peptidase 8, sequence (Q6V1X1 whole entry): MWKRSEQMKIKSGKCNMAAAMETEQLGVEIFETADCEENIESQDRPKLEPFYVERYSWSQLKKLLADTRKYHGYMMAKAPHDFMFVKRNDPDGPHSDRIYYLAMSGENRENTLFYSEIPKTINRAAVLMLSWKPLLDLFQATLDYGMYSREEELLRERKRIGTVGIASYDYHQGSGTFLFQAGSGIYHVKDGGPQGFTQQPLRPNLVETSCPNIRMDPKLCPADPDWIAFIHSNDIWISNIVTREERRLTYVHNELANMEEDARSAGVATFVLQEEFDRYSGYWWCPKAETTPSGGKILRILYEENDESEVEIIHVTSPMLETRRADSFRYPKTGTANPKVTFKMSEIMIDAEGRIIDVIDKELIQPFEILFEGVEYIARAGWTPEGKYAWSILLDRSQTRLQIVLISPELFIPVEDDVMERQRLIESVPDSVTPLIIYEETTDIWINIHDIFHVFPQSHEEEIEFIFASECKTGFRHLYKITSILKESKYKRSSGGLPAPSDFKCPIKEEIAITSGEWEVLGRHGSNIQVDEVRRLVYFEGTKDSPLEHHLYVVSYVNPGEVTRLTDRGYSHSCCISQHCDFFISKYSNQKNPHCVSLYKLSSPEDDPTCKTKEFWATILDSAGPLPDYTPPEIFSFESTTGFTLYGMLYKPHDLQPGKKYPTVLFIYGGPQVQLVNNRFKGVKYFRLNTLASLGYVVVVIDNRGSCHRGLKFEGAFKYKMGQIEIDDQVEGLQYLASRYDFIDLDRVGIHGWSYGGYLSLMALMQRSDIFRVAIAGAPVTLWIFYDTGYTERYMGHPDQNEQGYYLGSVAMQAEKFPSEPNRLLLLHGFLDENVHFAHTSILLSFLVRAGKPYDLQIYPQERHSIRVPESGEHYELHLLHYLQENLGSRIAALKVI
# [28] = biological target: T2, Cytochrome P450 3A4; experiment: Induction of CYP3A4 at 50 uM; format: ADME
# [29] = system: Rattus norvegicus; experiment: AUC in Sprague-Dawley rat at 10 mg/kg, po; format: ADME, organism-based, Plasma; set-up: dose 10 mg/kg, route oral; conditions: in vivo
# [30] = biological target: Voltage-gated inwardly rectifying potassium channel KCNH2 (Homo sapiens, UniProt Q12809); experiment: Inhibition of human ERG expressed in HEK293 cells by patch clamp assay; format: cell-based
# Voltage-gated inwardly rectifying potassium channel KCNH2, sequence (Q12809 whole entry): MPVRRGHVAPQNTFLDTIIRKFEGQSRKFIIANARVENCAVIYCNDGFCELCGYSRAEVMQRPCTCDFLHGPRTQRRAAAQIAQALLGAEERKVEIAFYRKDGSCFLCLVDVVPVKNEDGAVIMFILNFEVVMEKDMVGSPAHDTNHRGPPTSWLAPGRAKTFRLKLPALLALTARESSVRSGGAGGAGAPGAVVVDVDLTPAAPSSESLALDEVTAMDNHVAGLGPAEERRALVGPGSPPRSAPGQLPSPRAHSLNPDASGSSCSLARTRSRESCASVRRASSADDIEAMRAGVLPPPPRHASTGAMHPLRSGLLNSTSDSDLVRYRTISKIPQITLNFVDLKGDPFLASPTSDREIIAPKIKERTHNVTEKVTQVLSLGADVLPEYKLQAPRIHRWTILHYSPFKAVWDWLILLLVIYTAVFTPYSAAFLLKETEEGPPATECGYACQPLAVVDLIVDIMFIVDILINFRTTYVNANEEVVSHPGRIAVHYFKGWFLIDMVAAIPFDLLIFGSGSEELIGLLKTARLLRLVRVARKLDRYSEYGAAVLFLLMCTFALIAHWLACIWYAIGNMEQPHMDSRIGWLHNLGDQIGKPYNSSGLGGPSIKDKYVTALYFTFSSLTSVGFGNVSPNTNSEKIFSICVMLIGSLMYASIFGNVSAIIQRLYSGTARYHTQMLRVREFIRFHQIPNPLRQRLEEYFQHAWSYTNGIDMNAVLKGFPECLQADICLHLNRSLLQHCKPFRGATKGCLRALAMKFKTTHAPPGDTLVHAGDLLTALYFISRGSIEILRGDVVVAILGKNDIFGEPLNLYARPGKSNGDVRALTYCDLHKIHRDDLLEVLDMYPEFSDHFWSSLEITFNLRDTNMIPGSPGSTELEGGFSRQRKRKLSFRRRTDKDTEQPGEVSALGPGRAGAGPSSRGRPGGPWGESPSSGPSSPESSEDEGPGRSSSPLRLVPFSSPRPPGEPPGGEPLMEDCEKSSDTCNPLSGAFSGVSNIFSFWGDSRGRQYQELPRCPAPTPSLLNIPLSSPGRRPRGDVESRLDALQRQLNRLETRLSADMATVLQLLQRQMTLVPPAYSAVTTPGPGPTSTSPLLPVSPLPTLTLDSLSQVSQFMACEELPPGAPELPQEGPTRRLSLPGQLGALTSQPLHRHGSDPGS
# [31] = Terminal half life in Sprague-Dawley rat at 10 mg/kg, po; format: ADME, organism-based; set-up: dose 10 mg/kg, route oral; conditions: in vivo, read-out: beta t1/2 (converted)
# [32] = Plasma protein binding in rat at 20 ng/ml after 0.5 hrs by LC-MS/MS analysis; format: ADME, cell-free; conditions: read-out: PPB (converted)
# [33] = Intrinsic clearance in rat liver microsomes; format: ADME, Microsome
# [34] = biological target: T1, Cytochrome P450 1A2; experiment: Inhibition of CYP1A2; format: ADME
# [35] = system: Canis familiaris; experiment: Volume of distribution at steady state in Beagle dog at 0.2 mg/kg, iv; format: ADME, organism-based, Canis lupus familiaris; set-up: dose 0.2 mg/kg, route intravenous; conditions: in vivo
# [36] = Drug excretion in dog feces assessed as unchanged drug at 1 mg/kg, iv measured over 24 hrs; format: ADME, organism-based, Canis lupus familiaris; set-up: dose 1 mg/kg, route intravenous; conditions: faeces, read-out: AE
# [37] = Tmax in Sprague-Dawley rat at 3 mg/kg, po; format: ADME, organism-based; set-up: dose 3 mg/kg, route oral; conditions: in vivo
# [38] = biological target: T3, Cytochrome P450 2C9; experiment: Inhibition of CYP2C9; format: ADME
# [39] = biological target: T4, Cytochrome P450 2C8 (Homo sapiens, UniProt P10632); experiment: Induction of CYP2C8 at 50 uM; format: ADME
# T4 sequence (P10632 whole entry): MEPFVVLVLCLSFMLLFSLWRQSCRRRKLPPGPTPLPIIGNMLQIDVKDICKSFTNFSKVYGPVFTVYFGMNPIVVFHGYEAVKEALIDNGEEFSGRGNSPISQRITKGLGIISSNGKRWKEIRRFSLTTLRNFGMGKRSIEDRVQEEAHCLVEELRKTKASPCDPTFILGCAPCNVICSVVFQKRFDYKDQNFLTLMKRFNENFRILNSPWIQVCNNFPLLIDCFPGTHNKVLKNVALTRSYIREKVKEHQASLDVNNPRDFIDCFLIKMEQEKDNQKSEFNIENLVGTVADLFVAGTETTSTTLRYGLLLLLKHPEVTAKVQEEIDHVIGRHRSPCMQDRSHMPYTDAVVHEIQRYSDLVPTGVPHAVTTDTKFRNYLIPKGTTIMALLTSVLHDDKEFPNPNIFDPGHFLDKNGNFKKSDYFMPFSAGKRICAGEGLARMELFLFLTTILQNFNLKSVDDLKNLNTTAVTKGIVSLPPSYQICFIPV
# [40] = Plasma protein binding in human at 20 ng/ml after 0.5 hrs by LC-MS/MS analysis; format: ADME, cell-free; conditions: read-out: PPB (converted)
# [41] = Tmax in Beagle dog at 0.5 mg/kg, po; format: ADME, organism-based, Canis lupus familiaris; set-up: dose 0.5 mg/kg, route oral; conditions: in vivo
# [42] = Cmax in Sprague-Dawley rat at 10 mg/kg, po; format: ADME, organism-based; set-up: dose 10 mg/kg, route oral; conditions: in vivo
# [43] = Cmax in Sprague-Dawley rat at 3 mg/kg, po; format: ADME, organism-based; set-up: dose 3 mg/kg, route oral; conditions: in vivo
# [44] = Intrinsic clearance in monkey liver microsomes; format: ADME, Macaca mulatta, Microsome; conditions: rhesus monkey
# [45] = system: Rattus norvegicus; experiment: Inhibition of plasma DPP-4 activity in Wistar/ST rat at 0.1 mg/kg, po pretreated 30 mins before glucose challenge measured for 2 hrs during oral glucose tolerance test; format: functional
# [46] = Drug excretion in bile-duct cannulated Sprague-Dawley rat bile assessed as unchanged drug at 5 mg/kg, iv measured over 24 hrs; format: ADME, organism-based; set-up: dose 5 mg/kg, route intravenous; conditions: read-out: AE
# [47] = system: Rattus norvegicus; experiment: Inhibition of plasma DPP-4 activity in Wistar/ST rat at 3 mg/kg, po pretreated 30 mins before glucose challenge measured for 2 hrs during oral glucose tolerance test; format: functional
# [48] = biological target: Cytochrome P450 2C19 (Homo sapiens, UniProt P33261); experiment: Inhibition of CYP2C19; format: ADME
# Cytochrome P450 2C19, sequence (P33261 whole entry): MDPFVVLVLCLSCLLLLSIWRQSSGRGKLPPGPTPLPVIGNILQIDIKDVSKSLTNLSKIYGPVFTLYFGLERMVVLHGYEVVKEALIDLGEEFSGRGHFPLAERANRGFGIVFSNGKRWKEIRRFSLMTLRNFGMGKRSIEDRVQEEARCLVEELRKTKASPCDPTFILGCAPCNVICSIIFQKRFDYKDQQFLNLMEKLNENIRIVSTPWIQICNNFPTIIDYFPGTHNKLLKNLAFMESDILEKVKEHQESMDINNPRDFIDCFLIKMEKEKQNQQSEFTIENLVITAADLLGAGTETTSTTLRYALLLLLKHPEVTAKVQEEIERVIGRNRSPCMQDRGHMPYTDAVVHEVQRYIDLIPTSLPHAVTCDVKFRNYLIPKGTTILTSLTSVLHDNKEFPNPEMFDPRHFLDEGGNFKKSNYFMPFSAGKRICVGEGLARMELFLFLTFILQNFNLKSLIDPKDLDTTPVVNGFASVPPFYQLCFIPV
# [49] = Oral bioavailability in Sprague-Dawley rat at 5 mg/kg; format: ADME, organism-based; conditions: in vivo
# [50] = system: Rattus norvegicus; experiment: Increase in insulin level in Wistar/ST rat at 0.1 to 1 mg/kg, po pretreated 30 mins before glucose challenge measured after 10 mins; format: functional, organism-based
# [51] = system: Rattus norvegicus; experiment: Antidiabetic activity in Wistar/ST rat plasma assessed as reduction in glucose AUC (0 to 60 mins) at 1 mg/kg, po pretreated 30 mins before glucose challenge measured for 2 hrs by oral glucose tolerance test; format: functional, organism-based; set-up: dose 1 mg/kg
# [52] = system: Rattus norvegicus; experiment: Inhibition of plasma DPP-4 activity in orally dosed Wistar/ST rat pretreated 30 mins before glucose challenge measured for 2 hrs during oral glucose tolerance test; format: functional, organism-based
# Cytochrome P450 2D6, sequence (P10635 whole entry): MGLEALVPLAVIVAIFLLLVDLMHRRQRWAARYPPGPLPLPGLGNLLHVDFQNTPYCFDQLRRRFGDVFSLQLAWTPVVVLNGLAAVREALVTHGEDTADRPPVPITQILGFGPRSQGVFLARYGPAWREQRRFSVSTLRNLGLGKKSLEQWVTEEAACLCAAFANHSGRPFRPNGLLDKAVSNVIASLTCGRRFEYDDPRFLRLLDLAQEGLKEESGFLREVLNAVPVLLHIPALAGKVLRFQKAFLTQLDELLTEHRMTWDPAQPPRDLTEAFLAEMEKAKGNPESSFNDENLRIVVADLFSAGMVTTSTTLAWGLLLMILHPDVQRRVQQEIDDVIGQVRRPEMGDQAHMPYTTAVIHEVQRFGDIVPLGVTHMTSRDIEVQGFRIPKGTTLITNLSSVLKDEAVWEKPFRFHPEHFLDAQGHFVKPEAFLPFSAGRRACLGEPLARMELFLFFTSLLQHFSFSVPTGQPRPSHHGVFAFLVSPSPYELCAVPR
smiles,measurement,setting,value
Cc1cc2ncc(C(=O)NCC(C)(C)NCC(=O)N3CCC[C@H]3C#N)cn2n1.Cl [ANAGLIPTIN HYDROCHLORIDE],"fraction unbound at 0.5 h, 2000 ng/ml",[1],0.229
same,IC50,[2],> 10 µM
same,IC50,[3],60 µM
same,Activity,[4],Not Active
same,IC50,[5],> 10 µM
same,Tmax,[6],0.8 h
same,AUC,[7],824 ng·h/mL
same,"fraction unbound at 0.5 h, 2000 ng/ml",[8],0.482
same,dose excreted at 24 h,[9],13%
same,dose excreted at 24 h,[10],30%
same,dose excreted at 24 h,[11],41%
same,bioavailability,[12],23%
same,"fraction unbound at 0.5 h, 20 ng/ml",[13],0.352
same,bioavailability,[14],100%
same,"fraction unbound at 0.5 h, 2000 ng/ml",[15],0.736
same,CLint scaled,[16],1.67 mL/min/kg
same,clearance,[17],10.8 mL/min/kg
same,CLint scaled,[18],5 mL/min/kg
same,Vdss,[19],0.68 L/kg
same,Cmax,[20],14 nM
same,dose excreted at 24 h,[21],32%
same,Activity,[22],Non-toxic
same,Activity,[23],Not Active
same,half-life,[24],1 h
same,clearance,[25],33.3 mL/min/kg
same,Cmax,[26],261 ng/mL
same,IC50,[27],68 µM
same,Activity,[28],Not Active
same,AUC,[29],1160 ng·h/mL
same,IC50,[30],> 500 µM
same,half-life,[31],1.9 h
same,"fraction unbound at 0.5 h, 20 ng/ml",[32],0.227
same,CLint scaled,[33],23.3 mL/min/kg
same,IC50,[34],> 10 µM
same,Vdss,[35],0.83 L/kg
same,dose excreted at 24 h,[36],24%
same,Tmax,[37],2.3 h
same,IC50,[38],> 10 µM
same,Activity,[39],Not Active
same,"fraction unbound at 0.5 h, 20 ng/ml",[40],0.708
same,Tmax,[41],1.5 h
same,Cmax,[42],309 ng/mL
same,Cmax,[43],62 ng/mL
same,CLint scaled,[44],8.33 mL/min/kg
same,inhibition in vivo at 0.1 mg/kg,[45],30%
same,dose excreted at 24 h,[46],14%
same,inhibition in vivo at 3 mg/kg,[47],95%
same,IC50,[48],> 10 µM
Cc1cc2ncc(C(=O)NCC(C)(C)NCC(=O)N3CCC[C@H]3C#N)c(O)n2n1.Cl,bioavailability,[49],4.1%
Cc1cc2ncc(C(=O)NCC(C)(C)NCC(=O)N3CCC[C@H]3C#N)cn2n1,Activity,[50],Active
same,Activity,[51],Active
same,inhibition,[52],Dose-dependent effect
Cc1c(C(=O)NCC(C)(C)NCC(=O)N2CCC[C@H]2C#N)cnc2cc(C(C)(C)C)nn12,IC50,[27],> 100 µM
